Data on 23 compounds can be found in patent US9783527B2, “Indazole ureas and method of use” (AbbVie Inc., priority 2014, dated 2017).

Broadly, the IC50 is the point on the concentration scale where inhibition reaches its midpoint.

For test [1], the target named is human Nav1.7 (Homo sapiens (Human), UniProt Q15858). Nature of the test: FRET-based membrane potential assay, recombinant human sodium channel Nav1.7. Format: cell-based. Conditions: HEK293 cells stably expressing recombinant human Nav1.7; depolarization with veratridine (EC80) + scorpion venom. In outline:
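IC50 derived by four-parameter Hill fit of percent inhibition of depolarization, measured as peak F440-480/F565-625 ratio over baseline. Stable human Nav1.7 HEK293 cells, dye-loaded with CC2-DMPE and DiSBAC2(3)/VABSC-1 at room temperature, received compound 3 min ahead of veratridine (EC80) plus scorpion venom.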

Test [2] concerns the target human Nav1.8 (Homo sapiens (Human), UniProt Q9Y5Y9). In words: FRET-based membrane potential assay, recombinant human sodium channel Nav1.8. It is filed as cell-based. Conditions: HEK293 cells stably expressing recombinant human Nav1.8; depolarization with veratridine (EC80) + scorpion venom. How it is done:
FRET-Based Membrane Potential Assays.
Recombinant, Human Sodium Channel, Nav1.8.
Two days prior to the experiment, frozen HEK293 cells stably expressing recombinant human Nav1.8 (Essen, Ann Arbor, Mich.) were quickly thawed and plated at 22,500 cells/well in growth medium [MEM (Invitrogen #11095) with 10% FBS (Invitrogen #10082), 1 mM sodium pyruvate (Invitrogen, #C11360), 10 units/mL penicillin/10 U/mL streptomycin/29.2 μg/mL glutamine ((PSG 1%, Invitrogen #10378), 400 μg/mL zeocin (Invitrogen #R250) in black-walled, clear-bottom 384-well poly-D-lysine-coated assay plates (Greiner Bio-One, Frickenhausen, Germany) and incubated in a humidified 5% CO2 incubator at 37° C. On the day of the assay, medium was removed by aspiration, and cells were washed with assay buffer [HBSS (Invitrogen, Carlsbad, Calif.) containing 20 mM HEPES (Invitrogen, Carlsbad, Calif.)]. After washing, 30 μL assay buffer containing the fluorescent voltage-sensor probe CC2-DMPE (Invitrogen, Carlsbad, Calif.) at 20 μM and 0.01% pluronic F-127 (Invitrogen, Carlsbad, Calif.) was added to the cells. Cells were incubated for 40 minutes at room temperature in the dark. Following the incubation, the cells were washed and 30 μL assay buffer containing 2.5 μM DiSBAC2(3) substrate (Invitrogen, Carlsbad, Calif.) and 0.5 mM VABSC-1 (Invitrogen, Carlsbad, Calif.) was added to the cells. The cells were incubated for 60 minutes at room temperature in the dark. Fluorescence readings were made using a FLIPR®^TETRA (Molecular Devices, Sunnyvale Calif.) equipped with voltage-sensor probe optics. The depolarizing agent, veratridine (Sigma-Aldrich, St. Louis, Mo.), was made up at 3× concentrations in assay buffer containing 1 mg/mL scorpion venom (SVqq, from Leiurus quinquestriatus; Sigma-Aldrich, St. Louis, Mo.). The assay agonist/opener concentration was determined each day using a 6-point veratridine concentration curve in duplicate, tested with three concentrations of tetracaine (0.1, 0.06, 0.01 μM all in 0.03% dimethyl sulfoxide) and 0.03% dimethyl sulfoxide control in assay buffer. […] Test compounds in the daughter plate were diluted to (˜3×) solutions in assay buffer immediately before assaying. Using the FLIPR®^TETRA, 20 μL of the (3×) compound solutions were first added to the cells, then 20 μL of depolarizing solution (3×EC80 veratridine+SVqq) were added 3 minutes later to activate the channel. Changes in fluorescence were measured at wavelengths of 440-480 nm and 565-625 nm over the course of the experimental run. Membrane depolarization was expressed as a ratio of the maximum F440-480 nm/F565-625 nm reading above average baseline F440-480 nm/F565-625 nm reading. IC50 values were calculated from curve fits of the ratio data using a four-parameter logistic Hill equation (Accelrys Assay Explorer 3.3 Client, Accelrys, San Diego, Calif.) with percent inhibition plotted against compound concentration.

Chain of human Nav1.7 (Q15858 whole entry): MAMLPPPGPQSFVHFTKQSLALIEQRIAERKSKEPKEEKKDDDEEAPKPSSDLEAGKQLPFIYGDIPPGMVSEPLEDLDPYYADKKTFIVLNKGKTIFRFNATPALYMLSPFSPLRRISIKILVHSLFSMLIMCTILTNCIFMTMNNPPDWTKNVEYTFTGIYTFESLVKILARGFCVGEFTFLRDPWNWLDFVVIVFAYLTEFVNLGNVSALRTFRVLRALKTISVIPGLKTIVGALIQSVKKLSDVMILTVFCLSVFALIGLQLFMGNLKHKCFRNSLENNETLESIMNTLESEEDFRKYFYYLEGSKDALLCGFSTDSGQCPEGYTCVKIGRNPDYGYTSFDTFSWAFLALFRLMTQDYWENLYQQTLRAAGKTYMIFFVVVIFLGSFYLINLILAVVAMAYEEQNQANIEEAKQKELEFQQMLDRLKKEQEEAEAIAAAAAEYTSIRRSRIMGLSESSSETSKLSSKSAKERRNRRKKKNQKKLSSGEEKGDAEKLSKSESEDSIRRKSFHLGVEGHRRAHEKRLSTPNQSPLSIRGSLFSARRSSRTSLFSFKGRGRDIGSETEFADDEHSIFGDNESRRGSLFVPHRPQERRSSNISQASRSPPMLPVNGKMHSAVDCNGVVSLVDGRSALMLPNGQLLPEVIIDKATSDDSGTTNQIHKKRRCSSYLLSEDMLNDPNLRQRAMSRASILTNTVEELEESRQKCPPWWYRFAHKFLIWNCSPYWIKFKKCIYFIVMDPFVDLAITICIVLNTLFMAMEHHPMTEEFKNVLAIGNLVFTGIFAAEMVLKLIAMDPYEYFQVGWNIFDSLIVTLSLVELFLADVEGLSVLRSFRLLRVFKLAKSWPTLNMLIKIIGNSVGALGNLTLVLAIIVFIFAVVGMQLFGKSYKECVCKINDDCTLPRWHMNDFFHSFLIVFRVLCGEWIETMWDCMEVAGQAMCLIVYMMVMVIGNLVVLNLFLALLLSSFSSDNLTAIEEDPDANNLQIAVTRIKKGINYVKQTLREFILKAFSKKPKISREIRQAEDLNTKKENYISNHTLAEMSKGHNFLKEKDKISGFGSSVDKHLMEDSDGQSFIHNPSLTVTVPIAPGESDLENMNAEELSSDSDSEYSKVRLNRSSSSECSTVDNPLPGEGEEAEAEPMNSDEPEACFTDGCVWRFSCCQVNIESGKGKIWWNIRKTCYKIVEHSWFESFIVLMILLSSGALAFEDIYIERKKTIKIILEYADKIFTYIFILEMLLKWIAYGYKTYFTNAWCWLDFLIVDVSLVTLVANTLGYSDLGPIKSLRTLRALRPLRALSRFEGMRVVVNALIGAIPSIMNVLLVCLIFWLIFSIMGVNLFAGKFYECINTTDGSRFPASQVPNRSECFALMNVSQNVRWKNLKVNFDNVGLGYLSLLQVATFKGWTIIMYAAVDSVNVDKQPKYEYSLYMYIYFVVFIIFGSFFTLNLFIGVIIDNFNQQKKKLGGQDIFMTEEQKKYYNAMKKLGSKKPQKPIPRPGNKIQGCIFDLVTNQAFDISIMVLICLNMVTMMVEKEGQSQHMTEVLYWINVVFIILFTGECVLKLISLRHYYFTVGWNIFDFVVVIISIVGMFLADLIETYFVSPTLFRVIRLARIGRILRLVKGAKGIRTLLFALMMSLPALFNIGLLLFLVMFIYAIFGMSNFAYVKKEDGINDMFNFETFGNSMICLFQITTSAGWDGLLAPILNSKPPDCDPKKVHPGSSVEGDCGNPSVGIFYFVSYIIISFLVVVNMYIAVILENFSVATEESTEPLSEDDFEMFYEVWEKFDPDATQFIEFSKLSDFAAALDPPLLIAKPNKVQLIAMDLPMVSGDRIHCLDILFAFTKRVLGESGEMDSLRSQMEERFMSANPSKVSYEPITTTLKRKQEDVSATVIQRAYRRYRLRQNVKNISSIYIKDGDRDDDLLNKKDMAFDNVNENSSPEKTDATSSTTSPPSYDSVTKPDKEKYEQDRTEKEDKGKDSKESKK
Chain of human Nav1.8 (Q9Y5Y9 whole entry): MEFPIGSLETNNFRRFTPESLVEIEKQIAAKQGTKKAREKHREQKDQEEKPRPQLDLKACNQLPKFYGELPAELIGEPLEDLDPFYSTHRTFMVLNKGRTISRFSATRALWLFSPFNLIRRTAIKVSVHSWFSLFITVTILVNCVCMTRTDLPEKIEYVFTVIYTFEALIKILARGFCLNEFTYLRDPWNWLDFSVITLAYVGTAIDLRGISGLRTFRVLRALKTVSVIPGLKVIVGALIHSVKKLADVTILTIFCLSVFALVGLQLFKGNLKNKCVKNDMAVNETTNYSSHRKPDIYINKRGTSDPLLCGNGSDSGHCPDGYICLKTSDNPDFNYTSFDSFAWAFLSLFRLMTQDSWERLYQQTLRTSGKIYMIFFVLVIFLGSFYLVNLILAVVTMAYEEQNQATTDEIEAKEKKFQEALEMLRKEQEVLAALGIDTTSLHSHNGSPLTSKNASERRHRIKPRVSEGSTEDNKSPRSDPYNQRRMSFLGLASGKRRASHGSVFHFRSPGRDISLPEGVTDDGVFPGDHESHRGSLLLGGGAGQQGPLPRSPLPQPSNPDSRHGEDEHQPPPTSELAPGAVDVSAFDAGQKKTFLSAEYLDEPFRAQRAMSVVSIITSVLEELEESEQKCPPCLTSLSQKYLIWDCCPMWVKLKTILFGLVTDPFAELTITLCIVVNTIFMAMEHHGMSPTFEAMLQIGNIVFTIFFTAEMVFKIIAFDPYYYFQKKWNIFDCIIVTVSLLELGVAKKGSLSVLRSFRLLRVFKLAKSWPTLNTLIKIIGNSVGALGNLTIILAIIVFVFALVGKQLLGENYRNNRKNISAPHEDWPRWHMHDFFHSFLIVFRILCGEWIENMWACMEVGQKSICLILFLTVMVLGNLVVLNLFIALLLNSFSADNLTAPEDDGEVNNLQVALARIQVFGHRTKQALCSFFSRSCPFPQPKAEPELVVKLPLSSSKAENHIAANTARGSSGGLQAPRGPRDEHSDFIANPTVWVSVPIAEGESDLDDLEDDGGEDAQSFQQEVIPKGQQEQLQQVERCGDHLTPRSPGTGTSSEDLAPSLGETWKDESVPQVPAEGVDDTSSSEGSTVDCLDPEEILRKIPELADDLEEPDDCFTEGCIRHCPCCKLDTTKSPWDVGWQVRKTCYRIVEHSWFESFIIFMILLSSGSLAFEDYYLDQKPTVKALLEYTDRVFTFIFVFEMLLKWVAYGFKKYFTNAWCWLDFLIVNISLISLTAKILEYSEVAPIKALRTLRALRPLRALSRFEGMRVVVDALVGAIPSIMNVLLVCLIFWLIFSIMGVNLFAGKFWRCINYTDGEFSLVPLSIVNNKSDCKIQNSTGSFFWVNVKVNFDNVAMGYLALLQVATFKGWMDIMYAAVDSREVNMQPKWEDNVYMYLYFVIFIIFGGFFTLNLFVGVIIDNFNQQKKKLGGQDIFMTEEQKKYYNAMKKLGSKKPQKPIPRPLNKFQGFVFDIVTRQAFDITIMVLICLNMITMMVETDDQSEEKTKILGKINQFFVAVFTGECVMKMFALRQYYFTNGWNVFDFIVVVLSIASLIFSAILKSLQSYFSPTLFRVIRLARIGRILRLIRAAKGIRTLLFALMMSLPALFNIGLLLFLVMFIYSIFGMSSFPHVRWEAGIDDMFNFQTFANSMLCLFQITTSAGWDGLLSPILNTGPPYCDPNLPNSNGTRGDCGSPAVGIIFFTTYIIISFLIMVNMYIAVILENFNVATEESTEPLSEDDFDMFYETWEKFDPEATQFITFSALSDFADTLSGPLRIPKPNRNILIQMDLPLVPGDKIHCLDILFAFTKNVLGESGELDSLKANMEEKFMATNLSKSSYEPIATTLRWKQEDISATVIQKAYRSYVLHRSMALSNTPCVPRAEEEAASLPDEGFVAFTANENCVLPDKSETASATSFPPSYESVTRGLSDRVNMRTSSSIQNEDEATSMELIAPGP

With `CC(C)(C)OC(=O)CCN1CCN(c2cccc3c2cnn3-c2ccccc2F)C1=O` [Example 289, tert-butyl 3-{3-[1-(2-fluorophenyl)-1H-indazol-4-yl]-2-oxoimidazolidin-1-yl}propanoate], the concentration for half-maximal inhibition (IC50) came to 2.71 µM in test [1] and 2.05 µM in test [2].

As for `O=C(CN1CCN(c2cccc3c2cnn3-c2ccccc2F)C1=O)N1CCC[C@H](O)C1` [Example 290, 1-[1-(2-fluorophenyl)-1H-indazol-4-yl]-3-{2-[(3S)-3-hydroxypiperidin-1-yl]-2-oxoethyl}imidazolidin-2-one], the results for the IC50 in test [1] and in test [2] were 4.15 µM and 13.5 µM, respectively.

On to `O=C(CN1CCN(c2cccc3c2cnn3-c2ccccc2F)C1=O)N1CC(O)C1` [Example 291, 1-[1-(2-fluorophenyl)-1H-indazol-4-yl]-3-[2-(3-hydroxyazetidin-1-yl)-2-oxoethyl]imidazolidin-2-one], for which the half-maximal inhibitory concentration (IC50) turned out to be 5.9 µM in test [1] and 13.1 µM in test [2].

Take `O=C(CCN1CCN(c2cccc3c2cnn3-c2ccccc2F)C1=O)N1CC[C@H](F)C1` [Example 292, 1-[1-(2-fluorophenyl)-1H-indazol-4-yl]-3-{3-[(3S)-3-fluoropyrrolidin-1-yl]-3-oxopropyl}imidazolidin-2-one]: the IC50 came out at 2.96 µM in test [1] and 4.44 µM in test [2].

As to `O=C(CN1CCN(c2cccc3c2cnn3-c2ccccc2F)C1=O)N1CCOCC1` [Example 293, 1-[1-(2-fluorophenyl)-1H-indazol-4-yl]-3-[2-(morpholin-4-yl)-2-oxoethyl]imidazolidin-2-one], the concentration for half-maximal inhibition (IC50) in test [1] is 3.67 µM; in test [2] it was 17.6 µM.

Turning to `O=C(CN1CCN(c2cccc3c2cnn3C2CCCCC2)C1=O)N1CC[C@H](F)C1` [Example 294, 1-(1-cyclohexyl-1H-indazol-4-yl)-3-{2-[(3S)-3-fluoropyrrolidin-1-yl]-2-oxoethyl}imidazolidin-2-one], the figures for the IC50 in test [1] and in test [2] were 7.17 µM and 18.3 µM, respectively.

As to `O=C(CN1CCN(c2cccc3c2cnn3-c2ccccc2F)C1=O)N1CCCCC1` [Example 295, 1-[1-(2-fluorophenyl)-1H-indazol-4-yl]-3-[2-oxo-2-(piperidin-1-yl)ethyl]imidazolidin-2-one], the IC50 in test [1] turned out to be 2.51 µM; in test [2], 1.79 µM.

For `O=C(CN1CCN(c2cccc3c2cnn3-c2ccccc2F)C1=O)N1CCCC(F)(F)C1` [Example 296, 1-[2-(3,3-difluoropiperidin-1-yl)-2-oxoethyl]-3-[1-(2-fluorophenyl)-1H-indazol-4-yl]imidazolidin-2-one], the results for the 50% inhibitory concentration (IC50) in test [1] and in test [2] were 3.18 µM and 1.31 µM, respectively.

As to `O=C(CN1CCN(c2cccc3c2cnn3-c2ccccc2F)C1=O)N1CCC(F)(F)CC1` [Example 297, 1-[2-(4,4-difluoropiperidin-1-yl)-2-oxoethyl]-3-[1-(2-fluorophenyl)-1H-indazol-4-yl]imidazolidin-2-one], the figures for the half-maximal inhibitory concentration (IC50) in test [1] and in test [2] were 3.02 µM and 0.881 µM, respectively.

For the compound `O=C(CN1CCN(c2cccc3c2cnn3-c2ccccc2F)C1=O)N1CC(F)C1` [Example 298, 1-[2-(3-fluoroazetidin-1-yl)-2-oxoethyl]-3-[1-(2-fluorophenyl)-1H-indazol-4-yl]imidazolidin-2-one], the results for the IC50 in test [1] and in test [2] were 3.37 µM and 1.52 µM, respectively.

As to `O=C(CN1CCN(c2cccc3c2cnn3-c2ccccc2F)C1=O)N1CCC(C(F)(F)F)CC1` [Example 299, 1-[1-(2-fluorophenyl)-1H-indazol-4-yl]-3-{2-oxo-2-[4-(trifluoromethyl)piperidin-1-yl]ethyl}imidazolidin-2-one], the results for the half-maximal inhibitory concentration (IC50) in test [1] and in test [2] were 0.95 µM and 0.398 µM, respectively.

On to `O=C(CN1CCN(c2cccc3c2cnn3-c2ccccc2F)C1=O)N1CCCC(C(F)(F)F)C1` (stereo not shown) [Example 300, 1-[1-(2-fluorophenyl)-1H-indazol-4-yl]-3-{2-oxo-2-[3-(trifluoromethyl)piperidin-1-yl]ethyl}imidazolidin-2-one], for which the half-inhibitory concentration (IC50) in test [1] is 3.11 µM; in test [2], 1.06 µM.

On to `O=C(CN1CCN(c2cccc3c2cnn3-c2ccccc2F)C1=O)N1C[C@H]2CC[C@@H](C1)O2` [Example 301, 1-[1-(2-fluorophenyl)-1H-indazol-4-yl]-3-{2-[(1R,5S)-8-oxa-3-azabicyclo[3.2.1]oct-3-yl]-2-oxoethyl}imidazolidin-2-one], for which the half-inhibitory concentration (IC50) in test [1] worked out at 3.16 µM; in test [2], 1.56 µM.

Regarding `O=C1CCN(C(=O)CN2CCN(c3cccc4c3cnn4-c3ccccc3F)C2=O)C1` [Example 302, 1-[1-(2-fluorophenyl)-1H-indazol-4-yl]-3-[2-oxo-2-(3-oxopyrrolidin-1-yl)ethyl]imidazolidin-2-one], the concentration for half-maximal inhibition (IC50) was determined as 20 µM in test [1] and 7.18 µM in test [2].

`O=C(CN1CCN(c2cccc3c2cnn3-c2ccccc2F)C1=O)N1CCCCCC1` [Example 303, 1-[2-(azepan-1-yl)-2-oxoethyl]-3-[1-(2-fluorophenyl)-1H-indazol-4-yl]imidazolidin-2-one]: the half-inhibitory concentration (IC50) in test [1] was 2.46 µM; in test [2], 0.93 µM.

`O=C(CN1CCN(c2cccc3c2cnn3-c2ccccc2F)C1=O)NCC(F)(F)F` [Example 304, 2-{3-[1-(2-fluorophenyl)-1H-indazol-4-yl]-2-oxoimidazolidin-1-yl}-N-(2,2,2-trifluoroethyl)acetamide]: the concentration for half-maximal inhibition (IC50) in test [1] stood at 4.79 µM; in test [2], 1.41 µM.

As to `CC(C)(C)CCn1ncc2c(N3CCN(CC(=O)N4CCCC4)C3=O)cccc21` [Example 305, 1-[1-(3,3-dimethylbutyl)-1H-indazol-4-yl]-3-[2-oxo-2-(pyrrolidin-1-yl)ethyl]imidazolidin-2-one], the concentration for half-maximal inhibition (IC50) in test [1] is 3.67 µM; in test [2] it was 3.33 µM.

Regarding `CC(C)(C)n1ncc2c(N3CCN(CC(=O)N4CC[C@H](F)C4)C3=O)cccc21` [Example 306, 1-(1-tert-butyl-1H-indazol-4-yl)-3-{2-[(3S)-3-fluoropyrrolidin-1-yl]-2-oxoethyl}imidazolidin-2-one], the IC50 in test [1] and in test [2] was 20 µM each time.

In the case of `O=C(CN1CCN(c2cccc3c2cnn3-c2ccccc2F)C1=O)N1CC[C@H](C(F)(F)F)C1` [Example 308, 1-[1-(2-fluorophenyl)-1H-indazol-4-yl]-3-{2-oxo-2-[(3S)-3-(trifluoromethyl)pyrrolidin-1-yl]ethyl}imidazolidin-2-one], the figures for the IC50 in test [1] and in test [2] were 1.02 µM and 0.345 µM, respectively.

In the case of `CC1(F)CN(C(=O)CN2CCN(c3cccc4c3cnn4-c3ccccc3F)C2=O)C1` [Example 309, 1-[2-(3-fluoro-3-methylazetidin-1-yl)-2-oxoethyl]-3-[1-(2-fluorophenyl)-1H-indazol-4-yl]imidazolidin-2-one], the half-maximal inhibitory concentration (IC50) in test [1] was found to be 0.695 µM; in test [2] it was 0.725 µM.

As for `O=C(CN1CCN(c2cccc3c2cnn3-c2ccccc2F)C1=O)NC1CC(F)(F)C1` [Example 310, N-(3,3-difluorocyclobutyl)-2-{3-[1-(2-fluorophenyl)-1H-indazol-4-yl]-2-oxoimidazolidin-1-yl}acetamide], the IC50 came to 2.81 µM in test [1] and 0.878 µM in test [2].

For `O=C1C[C@H]2CC[C@@H](C1)N2C(=O)CN1CCN(c2cccc3c2cnn3-c2ccccc2F)C1=O` [Example 311, (1R,5S)-8-({3-[1-(2-fluorophenyl)-1H-indazol-4-yl]-2-oxoimidazolidin-1-yl}acetyl)-8-azabicyclo[3.2.1]octan-3-one], the figures for the IC50 in test [1] and in test [2] were 5.85 µM and 4.35 µM, respectively.

Turning to `O=C(CN1CCN(c2cccc3c2cnn3-c2ccccc2F)C1=O)N1CC(F)(F)C(F)(F)C1` [Example 312, 1-[1-(2-fluorophenyl)-1H-indazol-4-yl]-3-[2-oxo-2-(3,3,4,4-tetrafluoropyrrolidin-1-yl)ethyl]imidazolidin-2-one], the IC50 was 1.71 µM in test [1] and 1.68 µM in test [2].
